Laboratory results: patent US11000033B2, “Ketone or oxime compound, and herbicide” (NISSAN CHEMICAL CORPORATION, priority 2014, dated 2021)

Legend:
Assay type in all cases: in vivo
Apera spica-venti = experiment: Test Example 4: herbicidal effect by soil treatment (symbol L); conditions: for L (Apera spica-venti) herbicidal effect grade: application herbicide amount 320 g/ha; for L: Apera spica-venti, herbicidal effect grade: 320 g/ha
Summary of the method: (§1)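 Seeds were sown in sterilized diluvial soil, covered with about 1.5 cm of soil, and the soil surface was sprayed with a water-diluted emulsion of the compound at a predetermined rate. Plants grew in a greenhouse at 25° C. to 30° C.; effects were scored visually 3 weeks after application.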

Alopecurus myosuroides = experiment: Test Example 4: herbicidal effect by soil treatment (symbol J); conditions: for J (Alopecurus myosuroides) herbicidal effect grade: application herbicide amount 320 g/ha; for J: Alopecurus myosuroides, herbicidal effect grade: 320 g/ha
Summary of the method: as §1

soybean = experiment: Test Example 5: effect on crop by foliage application, plastic box (symbol d); conditions: 320 g/ha, 3 weeks after application
Summary of the method: (§2)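 Greenhouse test at 25° C. to 30° C. Seeds of crops and weeds were spot-sown in boxes of sterilized diluvial soil under roughly 1.5 cm soil cover, then grown for foliage treatment.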

Lolium multiflorum Lam. = experiment: Test Example 4: herbicidal effect by soil treatment (symbol K); conditions: for K (Lolium multiflorum Lam.) herbicidal effect grade: application herbicide amount 320 g/ha; for K: Lolium multiflorum Lam., herbicidal effect grade: 320 g/ha
Summary of the method: as §1

Veronica persica = experiment: Test Example 5: herbicidal effect by foliage application, plastic box (symbol R); conditions: 320 g/ha, 3 weeks after application
Summary of the method: (§3)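 Herbicide, formulated as an emulsion and diluted in water, is sprayed onto the aerial parts of 14-day seedlings. These were grown at 25° C. to 30° C. in sterilized diluvial soil; effects are graded after 3 weeks.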

Setaria viridis = experiment: Test Example 5: herbicidal effect by foliage application, plastic box (symbol G); conditions: 320 g/ha, 3 weeks after application
Summary of the method: as §3

Amaranthus retroflexus = experiment: Test Example 4: herbicidal effect by soil treatment (symbol N); conditions: for N (Amaranthus retroflexus) herbicidal effect grade: application herbicide amount 320 g/ha; for N: Amaranthus retroflexus, herbicidal effect grade: 320 g/ha
Summary of the method: as §1

Abutilon theophrasti = experiment: Test Example 5: herbicidal effect by foliage application, plastic box (symbol M); conditions: 320 g/ha, 3 weeks after application
Summary of the method: as §3

[1] = tested on: directly sowed rice plant; experiment: Test Example 3: effect on crop by foliage application, Wagner pot (symbol b); conditions: application herbicide amount 320 g/ha
Summary of the method: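 Greenhouse culture at 25–30 °C of seeded rice, Cyperus difformis, Leptochloa chinensis and Echinochloa crus-galli var. crus-galli, in alluvial soil held under 0.1–0.5 cm of water in a Wagner pot.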

[2] = tested on: Echinochloa crus-galli var. crus-galli; experiment: Test Example 5: herbicidal effect by foliage application, plastic box (symbol H); conditions: 320 g/ha, 3 weeks after application
Summary of the method: as §3

wheat = experiment: Test Example 5: effect on crop by foliage application, plastic box (symbol e); conditions: 320 g/ha, 3 weeks after application
Summary of the method: as §2

Stellaria media = experiment: Test Example 4: herbicidal effect by soil treatment (symbol P); conditions: for P (Stellaria media) herbicidal effect grade: application herbicide amount 320 g/ha; for P: Stellaria media, herbicidal effect grade: 320 g/ha
Summary of the method: as §1

Monochoria vaginalis = experiment: Test Example 1: herbicidal activity, application before weed generation in submerged conditions (symbol C); conditions: application herbicide amount 320 g/ha
Summary of the method: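 Pre-emergence, paddy conditions: emulsifiable formulation diluted in water, dosed onto floodwater (4 cm depth) on sowing day. Alluvial soil; weeds sown mixed; rice transplanted at 2.5-leaf stage. Greenhouse 25–30 °C, 3 wk. Score 0–5 (5 = ≥90% kill, 0 = ≤5%).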

Chenopodium album = experiment: Test Example 5: herbicidal effect by foliage application, plastic box (symbol O); conditions: 320 g/ha, 3 weeks after application
Summary of the method: as §3

corn = experiment: Test Example 4: effect on crop by soil treatment (symbol c); conditions: for c (corn) effect on crop grade: application herbicide amount 320 g/ha; for c: corn, effect grade on crop: 320 g/ha
Summary of the method: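 Plants are raised in a greenhouse (25° C. to 30° C.) from spot-sown seed, which sits under about 1.5 cm of sterilized diluvial soil in a box shared with weed species.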

[3] = tested on: Echinochloa crus-galli var. crus-galli; experiment: Test Example 3: herbicidal effect by foliage application, Wagner pot (symbol H); conditions: application herbicide amount 320 g/ha
Summary of the method: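 Foliar spray of a water-diluted emulsion at a predetermined herbicide amount, applied to 14-day-old plants. Seedlings were raised in flooded alluvial soil (0.1–0.5 cm water) at 25–30 °C in a greenhouse. Injury was rated after 3 weeks against fixed criteria.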

| Compound | L (Apera spica-venti) herbicidal effect grade (Apera spica-venti) | J (Alopecurus myosuroides) herbicidal effect grade (Alopecurus myosuroides) | d: soybean, effect on crop grade (soybean) | K (Lolium multiflorum Lam.) herbicidal effect grade (Lolium multiflorum Lam.) | R: Veronica persica, herbicidal effect grade (Veronica persica) | G: Setaria viridis, herbicidal effect grade (Setaria viridis) | N (Amaranthus retroflexus) herbicidal effect grade (Amaranthus retroflexus) | M: Abutilon theophrasti, herbicidal effect grade (Abutilon theophrasti) | effect on crop b (directly sowed rice plant), grade 0-5 [1] | H: Echinochloa crus-galli var. crus-galli, herbicidal effect grade [2] | e: wheat, effect on crop grade (wheat) | P (Stellaria media) herbicidal effect grade (Stellaria media) | Herbicidal effect grade, C: Monochoria vaginalis (Monochoria vaginalis) | O: Chenopodium album, herbicidal effect grade (Chenopodium album) | c (corn) effect on crop grade (corn) | herbicidal effect on H (Echinochloa crus-galli var. crus-galli), grade 0-5 [3] | L: Apera spica-venti, herbicidal effect grade (Apera spica-venti) | J: Alopecurus myosuroides, herbicidal effect grade (Alopecurus myosuroides) | d: soybean, effect on crop (criteria 0-5) (soybean) | K: Lolium multiflorum Lam., herbicidal effect grade (Lolium multiflorum Lam.) | also measured |
| --- | --- | --- | --- | --- | --- | --- | --- | --- | --- | --- | --- | --- | --- | --- | --- | --- | --- | --- | --- | --- | --- |
| CON=C(C)CC1CC(OC(=O)COc2ccc(OC)cc2)=C(c2c(C)cc(C)cc2C)C1=O (centres unmarked) [1-069] | 5 (Herbicidal ratio of 90% or more (almost completely withered)) | 5 (Herbicidal ratio of 90% or more (almost completely withered)) | 4 (Herbicidal ratio of 70% or higher and lower than 90%) | 5 (Herbicidal ratio of 90% or more (almost completely withered)) | 3 (Herbicidal ratio of 40% or higher and lower than 70%) | 5 (Herbicidal ratio of 90% or more (almost completely withered)) | 4 (Herbicidal ratio of 70% or higher and lower than 90%) | 5 (Herbicidal ratio of 90% or more (almost completely withered)) | 5 (Herbicidal ratio of 90% or more (almost completely withered)) | 5 (Herbicidal ratio of 90% or more (almost completely withered)) | 5 (Herbicidal ratio of 90% or more (almost completely withered)) | 0 (Herbicidal ratio of 5% or lower (almost no effect)) | 2 (Herbicidal ratio of 20% or higher and lower than 40%) | 2 (Herbicidal ratio of 20% or higher and lower than 40%) | 5 (Herbicidal ratio of 90% or more (almost completely withered)) | 5 (Herbicidal ratio of 90% or more (almost completely withered)) |  |  |  |  |  |
| CON=C(CC1CC1)CC1CC(O)=C(c2c(C)cc(C)cc2C)C1=O (centres unmarked) [1-070] | 5 (Herbicidal ratio of 90% or more (almost completely withered)) | 5 (Herbicidal ratio of 90% or more (almost completely withered)) | 0 (Herbicidal ratio of 5% or lower (almost no effect)) | 5 (Herbicidal ratio of 90% or more (almost completely withered)) | 2 (Herbicidal ratio of 20% or higher and lower than 40%) | 5 (Herbicidal ratio of 90% or more (almost completely withered)) | 0 (Herbicidal ratio of 5% or lower (almost no effect)) | 0 (Herbicidal ratio of 5% or lower (almost no effect)) | 5 (Herbicidal ratio of 90% or more (almost completely withered)) | 3 (Herbicidal ratio of 40% or higher and lower than 70%) | 0 (Herbicidal ratio of 5% or lower (almost no effect)) | 0 (Herbicidal ratio of 5% or lower (almost no effect)) | 0 (Herbicidal ratio of 5% or lower (almost no effect)) | 1 (Herbicidal ratio of 5% or higher and lower than 20%) | 1 (Herbicidal ratio of 5% or higher and lower than 20%) | 5 (Herbicidal ratio of 90% or more (almost completely withered)) |  |  |  |  |  |
| CON=C(C)CC1CC(OC(=O)COc2ccccc2[N+](=O)[O-])=C(c2c(C)cc(C)cc2C)C1=O (centres unmarked) [1-071] | 5 (Herbicidal ratio of 90% or more (almost completely withered)) | 5 (Herbicidal ratio of 90% or more (almost completely withered)) | 4 (Herbicidal ratio of 70% or higher and lower than 90%) | 5 (Herbicidal ratio of 90% or more (almost completely withered)) | 1 (Herbicidal ratio of 5% or higher and lower than 20%) | 5 (Herbicidal ratio of 90% or more (almost completely withered)) | 4 (Herbicidal ratio of 70% or higher and lower than 90%) | 4 (Herbicidal ratio of 70% or higher and lower than 90%) | 5 (Herbicidal ratio of 90% or more (almost completely withered)) | 5 (Herbicidal ratio of 90% or more (almost completely withered)) | 5 (Herbicidal ratio of 90% or more (almost completely withered)) | 0 (Herbicidal ratio of 5% or lower (almost no effect)) | 0 (Herbicidal ratio of 5% or lower (almost no effect)) | 1 (Herbicidal ratio of 5% or higher and lower than 20%) | 4 (Herbicidal ratio of 70% or higher and lower than 90%) | 5 (Herbicidal ratio of 90% or more (almost completely withered)) |  |  |  |  |  |
| CON=C(C)CC1CC(OC(=O)COc2ccc(C=O)cc2)=C(c2c(C)cc(C)cc2C)C1=O (centres unmarked) [1-079] |  |  |  |  |  |  |  |  | 5 (Herbicidal ratio of 90% or more (almost completely withered)) |  |  |  | 3 (Herbicidal ratio of 40% or higher and lower than 70%) |  |  | 5 (Herbicidal ratio of 90% or more (almost completely withered)) | 5 (Herbicidal ratio of 90% or more (almost completely withered)) | 5 (Herbicidal ratio of 90% or more (almost completely withered)) | 4 (Herbicidal ratio of 70% or higher and lower than 90%) | 5 (Herbicidal ratio of 90% or more (almost completely withered)) | R: Veronica persica, herbicidal effect (criteria 0-5) (Veronica persica): 3 (Herbicidal ratio of 40% or higher and lower than 70%); G: Setaria viridis, herbicidal effect (criteria 0-5) (Setaria viridis): 5 (Herbicidal ratio of 90% or more (almost completely withered)); N: Amaranthus retroflexus, herbicidal effect grade (Amaranthus retroflexus): 4 (Herbicidal ratio of 70% or higher and lower than 90%); M: Abutilon theophrasti, herbicidal effect (criteria 0-5) (Abutilon theophrasti): 4 (Herbicidal ratio of 70% or higher and lower than 90%); H: Echinochloa crus-galli var. crus-galli, herbicidal effect (criteria 0-5) [2]: 5 (Herbicidal ratio of 90% or more (almost completely withered)); e: wheat, effect on crop (criteria 0-5) (wheat): 4 (Herbicidal ratio of 70% or higher and lower than 90%); P: Stellaria media, herbicidal effect grade (Stellaria media): 0 (Herbicidal ratio of 5% or lower (almost no effect)); O: Chenopodium album, herbicidal effect (criteria 0-5) (Chenopodium album): 0 (Herbicidal ratio of 5% or lower (almost no effect)); c: corn, effect grade on crop (corn): 4 (Herbicidal ratio of 70% or higher and lower than 90%) |
| CON=C(C)CC1CC(OC(=O)COc2ccc(C(C)=O)cc2)=C(c2c(C)cc(C)cc2C)C1=O (centres unmarked) [1-080] |  |  |  |  |  |  |  |  | 5 (Herbicidal ratio of 90% or more (almost completely withered)) |  |  |  | 3 (Herbicidal ratio of 40% or higher and lower than 70%) |  |  | 5 (Herbicidal ratio of 90% or more (almost completely withered)) | 5 (Herbicidal ratio of 90% or more (almost completely withered)) | 5 (Herbicidal ratio of 90% or more (almost completely withered)) | 4 (Herbicidal ratio of 70% or higher and lower than 90%) | 5 (Herbicidal ratio of 90% or more (almost completely withered)) | R: Veronica persica, herbicidal effect (criteria 0-5) (Veronica persica): 1 (Herbicidal ratio of 5% or higher and lower than 20%); G: Setaria viridis, herbicidal effect (criteria 0-5) (Setaria viridis): 5 (Herbicidal ratio of 90% or more (almost completely withered)); N: Amaranthus retroflexus, herbicidal effect grade (Amaranthus retroflexus): 5 (Herbicidal ratio of 90% or more (almost completely withered)); M: Abutilon theophrasti, herbicidal effect (criteria 0-5) (Abutilon theophrasti): 4 (Herbicidal ratio of 70% or higher and lower than 90%); H: Echinochloa crus-galli var. crus-galli, herbicidal effect (criteria 0-5) [2]: 5 (Herbicidal ratio of 90% or more (almost completely withered)); e: wheat, effect on crop (criteria 0-5) (wheat): 4 (Herbicidal ratio of 70% or higher and lower than 90%); P: Stellaria media, herbicidal effect grade (Stellaria media): 0 (Herbicidal ratio of 5% or lower (almost no effect)); O: Chenopodium album, herbicidal effect (criteria 0-5) (Chenopodium album): 3 (Herbicidal ratio of 40% or higher and lower than 70%); c: corn, effect grade on crop (corn): 4 (Herbicidal ratio of 70% or higher and lower than 90%) |
